From ChEMBL document CHEMBL3885861, “Open TG-GATES”

Species on record: Rattus norvegicus
Test: Open TG-GATES - Regimen: Single
Assay type: toxicity, organism-based, Sprague-Dawley
Set-up: regimen Single, gender Male, age 6 weeks
Conditions: in vivo, po, 60 mg/kg, route gavage, dose level Middle; for APTT / Bas / Eos / Fbg / Hb / Ht / Lym / MCH / MCHC / MCV / Mono / Neu / PT / Plat / RBC / Ret / WBC: tissue Blood; for KIDNEY_L / KIDNEY_R / KIDNEY_TOTAL: tissue Kidney; for LIVER: tissue Liver; for A/G / ALP / ALT / AST / BUN / CRE / Ca / Cl / DBIL / GLC / IP / K / LDH / Na / PL / RALB / TBIL / TC / TG / TP / gamma-GTP: tissue Plasma

Work on `Cn1c(=O)c2[nH]cnc2n(C)c1=O.O` [THEOPHYLLINE] yielded a TERMINAL_BW (3 h) of 215.5 g, an APTT (3 h) of 22.1 s and a Bas (3 h) of 0%. The Eos (3 h) was 1.2%, the Fbg (3 h) was 306 mg/dL and the Hb (3 h) was 12.6 g/dL. For the same molecule, the Ht (3 h) was 38.3%, the Lym (3 h) was 68.6% and the MCH (3 h) was 20.2 pg. The MCHC (3 h) was 32.9%, the MCV (3 h) was 61.6 fL and the Mono (3 h) was 2.2%. The Neu (3 h) was 26.4%, the PT (3 h) was 15.4 s and the Plat (3 h) was 117 x10_4/uL. The RBC (3 h) was 622.6 x10_4/ul, the Ret (3 h) was 7.6% and the WBC (3 h) was 72.7 x10_2/uL. It also gave a KIDNEY_L (3 h) of 1 g, a KIDNEY_R (3 h) of 1 g and a KIDNEY_TOTAL (3 h) of 1.9 g. It also gave an LIVER (3 h) of 9.3 g, an A/G (3 h) of 1.3 and an ALP (3 h) of 1415.2 IU/L. The ALT (3 h) was 44.8 IU/L, the AST (3 h) was 80.2 IU/L and the BUN (3 h) was 13 mg/dL. For the same molecule, the CRE (3 h) was 0.2 mg/dL, the Ca (3 h) was 10.2 mg/dL and the Cl (3 h) was 108 meq/L. For the same molecule, the DBIL (3 h) was 0 mg/dL, the GLC (3 h) was 184.4 mg/dL and the IP (3 h) was 7.3 mg/dL. It also gave a K (3 h) of 3.5 meq/L, an LDH (3 h) of 184.2 IU/L and a Na (3 h) of 140.6 meq/L. For the same molecule, the PL (3 h) was 120 mg/dL, the RALB (3 h) was 3.2 g/dL and the TBIL (3 h) was 0.022 mg/dL. For the same molecule, the TC (3 h) was 67.8 mg/dL, the TG (3 h) was 33.6 mg/dL and the TP (3 h) was 5.6 g/dL. It also gave a gamma-GTP (3 h) of 1.6 IU/L, a TERMINAL_BW (6 h) of 215.8 g and an APTT (6 h) of 23.9 s. It also gave a Bas (6 h) of 0%, an Eos (6 h) of 0.8% and a Fbg (6 h) of 302.8 mg/dL. The Hb (6 h) was 13.1 g/dL, the Ht (6 h) was 40% and the Lym (6 h) was 75.2%. For the same molecule, the MCH (6 h) was 20.9 pg, the MCHC (6 h) was 32.7% and the MCV (6 h) was 64 fL. It also gave a Mono (6 h) of 3.2%, a Neu (6 h) of 19.4% and a PT (6 h) of 15.6 s. For the same molecule, the Plat (6 h) was 119.8 x10_4/uL, the RBC (6 h) was 626.8 x10_4/ul and the Ret (6 h) was 7.4%. For the same molecule, the WBC (6 h) was 74.1 x10_2/uL, the KIDNEY_L (6 h) was 0.9 g and the KIDNEY_R (6 h) was 0.9 g. It also gave a KIDNEY_TOTAL (6 h) of 1.8 g, an LIVER (6 h) of 9 g and an A/G (6 h) of 1.2. For the same molecule, the ALP (6 h) was 1323.6 IU/L, the ALT (6 h) was 41.6 IU/L and the AST (6 h) was 86 IU/L. For the same molecule, the BUN (6 h) was 11.6 mg/dL, the CRE (6 h) was 0.2 mg/dL and the Ca (6 h) was 10.6 mg/dL. The Cl (6 h) was 108.4 meq/L, the DBIL (6 h) was 0 mg/dL and the GLC (6 h) was 191 mg/dL. It also gave an IP (6 h) of 8.2 mg/dL, a K (6 h) of 3.5 meq/L and an LDH (6 h) of 212 IU/L. The Na (6 h) was 140.4 meq/L, the PL (6 h) was 126 mg/dL and the RALB (6 h) was 3.2 g/dL. The TBIL (6 h) was 0.018 mg/dL, the TC (6 h) was 70.2 mg/dL and the TG (6 h) was 36 mg/dL. For the same molecule, the TP (6 h) was 5.7 g/dL, the gamma-GTP (6 h) was 1.2 IU/L and the TERMINAL_BW (9 h) was 211.1 g. The APTT (9 h) was 22.3 s, the Bas (9 h) was 0% and the Eos (9 h) was 0.8%. For the same molecule, the Fbg (9 h) was 349.8 mg/dL, the Hb (9 h) was 12.9 g/dL and the Ht (9 h) was 38.8%. It also gave a Lym (9 h) of 73.2%, an MCH (9 h) of 20.6 pg and an MCHC (9 h) of 33.4%. The MCV (9 h) was 61.8 fL, the Mono (9 h) was 2% and the Neu (9 h) was 22%. For the same molecule, the PT (9 h) was 15.8 s, the Plat (9 h) was 120.3 x10_4/uL and the RBC (9 h) was 630.2 x10_4/ul. It also gave a Ret (9 h) of 7.2%, a WBC (9 h) of 77.3 x10_2/uL and a KIDNEY_L (9 h) of 1 g. It also gave a KIDNEY_R (9 h) of 1 g, a KIDNEY_TOTAL (9 h) of 2 g and an LIVER (9 h) of 8.6 g. For the same molecule, the A/G (9 h) was 1.2, the ALP (9 h) was 1618.2 IU/L and the ALT (9 h) was 43.8 IU/L. It also gave an AST (9 h) of 87.2 IU/L, a BUN (9 h) of 9.8 mg/dL and a CRE (9 h) of 0.2 mg/dL. It also gave a Ca (9 h) of 10.7 mg/dL, a Cl (9 h) of 107.2 meq/L and a DBIL (9 h) of 0 mg/dL. For the same molecule, the GLC (9 h) was 165.2 mg/dL, the IP (9 h) was 8.3 mg/dL and the K (9 h) was 3.7 meq/L. It also gave an LDH (9 h) of 168.2 IU/L, a Na (9 h) of 140.2 meq/L and a PL (9 h) of 121.6 mg/dL. The RALB (9 h) was 3.2 g/dL, the TBIL (9 h) was 0.022 mg/dL and the TC (9 h) was 73.8 mg/dL. For the same molecule, the TG (9 h) was 23.8 mg/dL, the TP (9 h) was 5.9 g/dL and the gamma-GTP (9 h) was 1.2 IU/L. For the same molecule, the TERMINAL_BW (24 h) was 225.6 g, the APTT (24 h) was 22.2 s and the Bas (24 h) was 0%. It also gave an Eos (24 h) of 0.8%, a Fbg (24 h) of 293 mg/dL and a Hb (24 h) of 13.9 g/dL. It also gave a Ht (24 h) of 41.4%, a Lym (24 h) of 76.2% and an MCH (24 h) of 20.6 pg. The MCHC (24 h) was 33.6%, the MCV (24 h) was 61.2 fL and the Mono (24 h) was 3%. The Neu (24 h) was 18.6%, the PT (24 h) was 16 s and the Plat (24 h) was 115 x10_4/uL. It also gave an RBC (24 h) of 676.8 x10_4/ul, a Ret (24 h) of 6.5% and a WBC (24 h) of 97.8 x10_2/uL. The KIDNEY_L (24 h) was 1 g, the KIDNEY_R (24 h) was 1 g and the KIDNEY_TOTAL (24 h) was 2 g. For the same molecule, the LIVER (24 h) was 10.1 g, the A/G (24 h) was 1.2 and the ALP (24 h) was 1662.4 IU/L. It also gave an ALT (24 h) of 42.8 IU/L, an AST (24 h) of 73.4 IU/L and a BUN (24 h) of 15.6 mg/dL. It also gave a CRE (24 h) of 0.2 mg/dL, a Ca (24 h) of 10.9 mg/dL and a Cl (24 h) of 106 meq/L. The DBIL (24 h) was 0.006 mg/dL, the GLC (24 h) was 191.2 mg/dL and the IP (24 h) was 8.8 mg/dL. The K (24 h) was 4.1 meq/L, the LDH (24 h) was 168.4 IU/L and the Na (24 h) was 142.2 meq/L. It also gave a PL (24 h) of 135.4 mg/dL, an RALB (24 h) of 3 g/dL and a TBIL (24 h) of 0.006 mg/dL. For the same molecule, the TC (24 h) was 78.2 mg/dL, the TG (24 h) was 60.6 mg/dL and the TP (24 h) was 5.5 g/dL. For the same molecule, the gamma-GTP (24 h) was 1.4 IU/L.
